Results reported in patent US20230079819A1, “COMPOUNDS AND USES THEREOF” (Foghorn Therapeutics Inc., priority 2019, published 2023).

Key:
BRM = molecular target: T1, BRM (Homo sapiens, UniProt P51531); experiment: ATPase catalytic activity of BRM, ADP-Glo in vitro biochemical assay; conditions: ATPase catalytic activity, 30 nM BRM, 400 μM ATP, read-out: BRM IP50 (μM)*
T1 construct: made in house; host or cells: High Five insect cells

BRG-1 = molecular target: T2, BRG-1 (Homo sapiens, UniProt P51532); experiment: ATPase catalytic activity of BRG-1, ADP-Glo in vitro biochemical assay; conditions: ATPase catalytic activity, 30 nM BRG-1, 400 μM ATP, read-out: BRG1 IP50 (μM)*
T2 construct: made in house; host or cells: High Five insect cells
T2 sequence (P51532 whole entry): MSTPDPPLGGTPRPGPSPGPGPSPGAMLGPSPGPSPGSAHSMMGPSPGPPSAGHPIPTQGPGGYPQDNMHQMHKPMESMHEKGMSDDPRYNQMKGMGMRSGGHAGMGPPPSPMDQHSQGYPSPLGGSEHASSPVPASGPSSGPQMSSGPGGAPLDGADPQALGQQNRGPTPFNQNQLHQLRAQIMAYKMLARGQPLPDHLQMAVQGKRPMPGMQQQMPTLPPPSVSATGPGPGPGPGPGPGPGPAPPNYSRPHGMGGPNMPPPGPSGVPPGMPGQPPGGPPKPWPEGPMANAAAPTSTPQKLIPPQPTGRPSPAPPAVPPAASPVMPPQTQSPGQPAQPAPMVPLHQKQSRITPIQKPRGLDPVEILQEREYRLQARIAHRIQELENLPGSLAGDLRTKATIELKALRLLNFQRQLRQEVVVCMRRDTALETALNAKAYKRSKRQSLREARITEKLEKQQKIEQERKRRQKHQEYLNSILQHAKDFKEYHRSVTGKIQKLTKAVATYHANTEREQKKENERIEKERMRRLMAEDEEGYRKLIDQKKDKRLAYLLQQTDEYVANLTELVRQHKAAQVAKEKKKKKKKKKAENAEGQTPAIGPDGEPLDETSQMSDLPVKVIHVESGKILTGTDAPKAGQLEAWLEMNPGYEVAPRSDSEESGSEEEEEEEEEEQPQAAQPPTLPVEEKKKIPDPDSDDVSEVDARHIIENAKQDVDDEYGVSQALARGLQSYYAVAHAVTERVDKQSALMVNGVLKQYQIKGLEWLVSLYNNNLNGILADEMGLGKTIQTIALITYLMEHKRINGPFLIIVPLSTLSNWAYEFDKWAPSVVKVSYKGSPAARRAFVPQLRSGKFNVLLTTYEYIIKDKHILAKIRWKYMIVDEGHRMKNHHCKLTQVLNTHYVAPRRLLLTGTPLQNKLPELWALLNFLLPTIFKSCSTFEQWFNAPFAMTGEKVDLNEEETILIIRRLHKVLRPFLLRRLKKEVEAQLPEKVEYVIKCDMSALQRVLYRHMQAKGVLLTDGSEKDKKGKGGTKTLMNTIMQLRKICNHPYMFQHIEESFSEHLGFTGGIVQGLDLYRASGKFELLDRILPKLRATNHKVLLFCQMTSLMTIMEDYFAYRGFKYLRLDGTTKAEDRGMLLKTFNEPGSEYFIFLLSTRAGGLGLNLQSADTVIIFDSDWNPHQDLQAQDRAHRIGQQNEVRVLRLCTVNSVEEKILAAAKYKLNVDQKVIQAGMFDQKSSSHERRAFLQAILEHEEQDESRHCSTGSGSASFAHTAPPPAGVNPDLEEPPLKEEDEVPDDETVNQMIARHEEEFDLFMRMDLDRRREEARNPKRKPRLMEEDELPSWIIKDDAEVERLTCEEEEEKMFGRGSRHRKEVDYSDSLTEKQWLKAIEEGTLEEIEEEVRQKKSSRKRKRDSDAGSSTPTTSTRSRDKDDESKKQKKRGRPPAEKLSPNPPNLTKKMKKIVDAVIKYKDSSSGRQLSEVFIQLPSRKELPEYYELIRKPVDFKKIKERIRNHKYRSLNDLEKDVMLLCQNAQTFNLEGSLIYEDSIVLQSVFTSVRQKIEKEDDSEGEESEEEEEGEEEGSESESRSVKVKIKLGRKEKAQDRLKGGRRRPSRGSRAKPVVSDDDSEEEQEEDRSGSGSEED

T1 sequence (P51531 whole entry): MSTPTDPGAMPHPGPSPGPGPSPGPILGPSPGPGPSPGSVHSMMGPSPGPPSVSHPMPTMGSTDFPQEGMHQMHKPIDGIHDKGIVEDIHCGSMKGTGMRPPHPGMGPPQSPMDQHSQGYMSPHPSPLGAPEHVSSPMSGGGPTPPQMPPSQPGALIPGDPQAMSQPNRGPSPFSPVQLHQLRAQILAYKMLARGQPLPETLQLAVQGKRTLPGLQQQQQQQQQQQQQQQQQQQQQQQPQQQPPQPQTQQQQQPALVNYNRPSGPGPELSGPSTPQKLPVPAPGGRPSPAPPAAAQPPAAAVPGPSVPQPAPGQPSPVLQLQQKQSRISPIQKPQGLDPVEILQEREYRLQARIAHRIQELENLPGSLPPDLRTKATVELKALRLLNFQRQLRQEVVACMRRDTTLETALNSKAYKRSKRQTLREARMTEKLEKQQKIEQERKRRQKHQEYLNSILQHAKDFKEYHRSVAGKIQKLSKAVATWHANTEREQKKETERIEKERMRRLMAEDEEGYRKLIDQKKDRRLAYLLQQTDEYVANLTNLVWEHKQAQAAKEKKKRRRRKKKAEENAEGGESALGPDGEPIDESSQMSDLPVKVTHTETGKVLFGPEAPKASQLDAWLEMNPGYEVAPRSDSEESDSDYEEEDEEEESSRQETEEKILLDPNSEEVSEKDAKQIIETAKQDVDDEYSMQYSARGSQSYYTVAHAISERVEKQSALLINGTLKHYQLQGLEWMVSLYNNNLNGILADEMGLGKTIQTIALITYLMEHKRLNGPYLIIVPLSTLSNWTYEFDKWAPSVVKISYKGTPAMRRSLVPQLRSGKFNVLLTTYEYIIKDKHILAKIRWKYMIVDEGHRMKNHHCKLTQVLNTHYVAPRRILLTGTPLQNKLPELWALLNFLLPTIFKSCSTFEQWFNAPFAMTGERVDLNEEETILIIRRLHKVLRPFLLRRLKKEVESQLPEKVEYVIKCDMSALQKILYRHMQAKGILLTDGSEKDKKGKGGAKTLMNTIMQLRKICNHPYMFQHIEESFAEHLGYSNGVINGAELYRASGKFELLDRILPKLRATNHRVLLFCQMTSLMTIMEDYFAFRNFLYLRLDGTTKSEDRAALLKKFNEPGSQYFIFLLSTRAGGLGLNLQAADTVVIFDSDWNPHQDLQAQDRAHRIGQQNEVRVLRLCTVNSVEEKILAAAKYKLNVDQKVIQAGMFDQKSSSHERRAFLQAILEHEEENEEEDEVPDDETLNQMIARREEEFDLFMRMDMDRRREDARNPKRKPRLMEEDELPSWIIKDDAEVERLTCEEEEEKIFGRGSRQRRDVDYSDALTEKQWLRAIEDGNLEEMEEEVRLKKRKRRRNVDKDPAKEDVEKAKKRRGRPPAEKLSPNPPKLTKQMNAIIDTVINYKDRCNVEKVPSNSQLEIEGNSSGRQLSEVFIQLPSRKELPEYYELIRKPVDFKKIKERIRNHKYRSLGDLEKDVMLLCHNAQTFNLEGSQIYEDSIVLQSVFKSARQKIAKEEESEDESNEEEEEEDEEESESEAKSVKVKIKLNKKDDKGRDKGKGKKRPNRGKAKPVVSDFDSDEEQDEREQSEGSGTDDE

SMILES	IC50 (BRM)	IC50 (BRG-1)
CC1Cc2ccc(-c3csc(NC(=O)CNC(=O)c4ccn(S(C)(=O)=O)c4)n3)cc2O1 (centres unmarked) [Compound 249]	> 0.01 µM	> 0.01 µM
COCCN1CCc2ccc(-c3csc(NC(=O)CNC(=O)c4ccn(S(C)(=O)=O)c4)n3)cc21 [Compound 250]	> 0.01 µM	> 0.01 µM
CO[C@H]1C[C@H](Oc2cccc(-c3csc(NC(=O)CNC(=O)c4ccn(S(C)(=O)=O)c4)n3)c2)C1 [Compound 252]	> 0.01 µM	> 0.01 µM
CS(=O)(=O)n1ccc(C(=O)NCC(=O)Nc2nc(-c3cc(F)c4ccoc4c3)cs2)c1 [Compound 253]	> 0.01 µM	> 0.01 µM
CO[C@H]1C[C@@H](Oc2cccc(-c3csc(NC(=O)CNC(=O)c4ccn(S(C)(=O)=O)c4)n3)c2)C1 [Compound 254]	> 0.01 µM	> 0.01 µM
CS(=O)(=O)n1ccc(C(=O)NCC(=O)Nc2nc(-c3cccc(C4(F)CCC4)c3)cs2)c1 [Compound 256]	> 0.01 µM	> 0.01 µM
CO[C@]1(C)CCCN(c2cccc(-c3csc(NC(=O)CNC(=O)c4ccn(S(C)(=O)=O)c4)n3)c2)C1 [Compound 257]	> 0.01 µM	> 0.01 µM
CO[C@@]1(C)CCCN(c2cccc(-c3csc(NC(=O)CNC(=O)c4ccn(S(C)(=O)=O)c4)n3)c2)C1 [Compound 258]	> 0.01 µM	> 0.01 µM
CN1CCOCc2ccc(-c3csc(NC(=O)CNC(=O)c4ccn(S(C)(=O)=O)c4)n3)cc21 [Compound 259]	> 0.01 µM	> 0.01 µM
CS(=O)(=O)n1ccc(C(=O)NCC(=O)Nc2nc(-c3cc(Cl)cc(OC4CC4)c3)cs2)c1 [Compound 260]	> 0.01 µM	> 0.01 µM
COc1ccncc1-c1cccc(-c2csc(NC(=O)CNC(=O)c3ccn(C4(C)COC4)c3)n2)n1 [Compound 262, N-[2-[[4-[6-(4-methoxy-3-pyridyl)-2-pyridyl]thiazol-2-yl]amino]-2-oxo-ethyl]-1-(3-methyloxetan-3-yl)pyrrole-3-carboxamide]	> 0.01 µM	> 0.01 µM
CN1CCc2ccc(-c3csc(NC(=O)CNC(=O)c4ccn(C(C)(C)C)c4)n3)cc21 [Compound 263]	> 0.01 µM	> 0.01 µM
CS(=O)(=O)n1ccc(C(=O)NCC(=O)Nc2nc(-c3ccc4c(c3F)OCC4)cs2)c1 [Compound 264]	> 0.01 µM	> 0.01 µM
CS(=O)(=O)n1ccc(C(=O)NCC(=O)Nc2nc(-c3cccc(OC4CC4)c3)cs2)c1 [Compound 265]	> 0.01 µM	> 0.01 µM
CS(=O)(=O)n1ccc(C(=O)NCC(=O)Nc2nc(-c3cccc(OCF)c3)cs2)c1 [Compound 266]	> 0.01 µM	> 0.01 µM
C[C@@H]1CN(c2cc(-c3csc(NC(=O)CNC(=O)c4ccn(S(C)(=O)=O)c4)n3)cc(C3CC3)c2)C[C@H](C)O1 [Compound 267]	> 0.1 µM	> 0.1 µM
C[C@@H]1CN(c2cccc(-c3csc(NC(=O)CNC(=O)c4ccn(C5(C)COC5)c4)n3)c2F)C[C@H](C)O1 [Compound 268]	> 0.01 µM	> 0.1 µM
C[C@@H]1CN(c2cccc(-c3csc(NC(=O)CNC(=O)c4ccn(C(C)(C)C)c4)n3)c2F)C[C@H](C)O1 [Compound 269]	> 0.01 µM	> 0.01 µM
CN1CCc2ccc(-c3csc(NC(=O)CNC(=O)c4ccn(S(C)(=O)=O)c4)n3)cc21 [Compound 270]	> 0.01 µM	> 0.01 µM
CC1(n2ccc(C(=O)NCC(=O)Nc3nc(-c4ccc5c(c4)OCC5)cs3)c2)COC1 [Compound 271]	> 0.01 µM	> 0.1 µM
CNc1cccc(-c2csc(NC(=O)CNC(=O)c3ccn(C(C)(C)C)c3)n2)c1 [Compound 272]	> 0.01 µM	> 0.1 µM
CN1CCCCc2ccc(-c3csc(NC(=O)CNC(=O)c4ccn(S(C)(=O)=O)c4)n3)cc21 [Compound 273]	> 0.01 µM	> 0.1 µM
CS(=O)(=O)n1ccc(C(=O)NCC(=O)Nc2nc(-c3cccc(OC4CCCOC4)c3)cs2)c1 (centres unmarked) [Compound 274]	> 0.01 µM	> 0.01 µM
CS(=O)(=O)n1ccc(C(=O)NCC(=O)Nc2nc(-c3cccc(-c4cn(C(F)F)nn4)c3)cs2)c1 [Compound 275]	> 0.01 µM	> 0.01 µM
CS(=O)(=O)n1ccc(C(=O)NCC(=O)Nc2nc(-c3cccc(OC(F)(F)F)c3)cs2)c1 [Compound 276]	> 0.01 µM	> 0.01 µM
CS(=O)(=O)n1ccc(C(=O)NCC(=O)Nc2nc(-c3cccc(-c4cnnn4C(F)F)c3)cs2)c1 [Compound 278]	> 0.01 µM	> 0.01 µM
CS(=O)(=O)n1ccc(C(=O)NCC(=O)Nc2nc(-c3cccc(OC4CCOCC4)c3)cs2)c1 [Compound 279]	> 0.01 µM	> 0.01 µM
CNc1cccc(-c2csc(NC(=O)CNC(=O)c3ccn(S(C)(=O)=O)c3)n2)c1 [Compound 280]	> 0.01 µM	> 0.01 µM
CC(C)Oc1cccc(-c2csc(NC(=O)CNC(=O)c3ccn(S(C)(=O)=O)c3)n2)c1 [Compound 281]	> 0.01 µM	> 0.01 µM

Continued, values first:

IC50 (BRM)	IC50 (BRG-1)	SMILES
> 0.01 µM	> 0.01 µM	CC[C@@H]1CN(c2cccc(-c3csc(NC(=O)CNC(=O)c4ccn(S(C)(=O)=O)c4)n3)c2)CCO1 [Compound 237]
> 0.01 µM	> 0.01 µM	C[C@@H]1CCCN(c2cccc(-c3csc(NC(=O)CNC(=O)c4ccn(S(C)(=O)=O)c4)n3)c2)C1 [Compound 238]
> 0.01 µM	> 0.01 µM	C[C@@H]1COCCN1c1cccc(-c2csc(NC(=O)CNC(=O)c3ccn(S(C)(=O)=O)c3)n2)c1 [Compound 239]
> 0.01 µM	> 0.1 µM	CS(=O)(=O)n1ccc(C(=O)NCC(=O)Nc2nc(-c3cccc(N4CCC(F)(F)CC4)c3)cs2)c1 [Compound 241]
> 0.01 µM	> 0.01 µM	CS(=O)(=O)n1ccc(C(=O)NCC(=O)Nc2nc(-c3cccc(N4CCCCC4)c3)cs2)c1 [Compound 242]
> 0.01 µM	> 0.1 µM	CC1(O)CCN(c2cccc(-c3csc(NC(=O)CNC(=O)c4ccn(S(C)(=O)=O)c4)n3)c2)CC1 [Compound 243]
> 0.01 µM	> 0.01 µM	COC[C@@H]1CCCN(c2cccc(-c3csc(NC(=O)CNC(=O)c4ccn(S(C)(=O)=O)c4)n3)c2)C1 [Compound 244]
> 0.01 µM	> 0.01 µM	CC(C)(C)n1ccc(C(=O)NCC(=O)Nc2nc(-c3cccc(N4CC5(COC5)C4)c3)cs2)c1 [Compound 245]
< 0.01 µM	> 0.01 µM	COC1CN(c2cccc(-c3csc(NC(=O)CNC(=O)c4ccn(S(C)(=O)=O)c4)n3)c2)C1 [Compound 246]
> 0.01 µM	> 0.01 µM	Cc1cccc(-c2csc(NC(=O)CNC(=O)c3ccn(S(C)(=O)=O)c3)n2)c1 [Compound 247]
> 0.01 µM	> 0.01 µM	CS(=O)(=O)n1ccc(C(=O)NCC(=O)Nc2nc(-c3cccc(C(F)F)c3)cs2)c1 [Compound 248]
< 0.01 µM	< 0.01 µM	CS(=O)(=O)n1ccc(C(=O)NCC(=O)Nc2nc(-c3cc(F)c4c(c3)OCC4)cs2)c1 [Compound 255]
< 0.01 µM	< 0.01 µM	Cn1ncc(-c2cccc(-c3csc(NC(=O)CNC(=O)c4ccn(S(C)(=O)=O)c4)n3)c2)n1 [Compound 261]
< 0.01 µM	> 0.01 µM	CS(=O)(=O)n1ccc(C(=O)NCC(=O)Nc2nc(-c3cccc(-c4cnn(C5CC5)n4)c3)cs2)c1 [Compound 277]
